Test results as given in patent US20250051344A1, “BIFUNCTIONAL SELECTIVE DEGRADERS OF SMARCA2 AND THERAPEUTIC USES THEREOF” (Nurix Therapeutics, Inc., priority 2023, published 2025).

Key:
SMARCA2 = target: T1, SMARCA2 (Homo sapiens, UniProt P51531); assay: SMARCA2 Cellular Degradation Assay (Western blot analysis on Jess platform); type: cell-based; conditions: for DC50 / Dmax: cellular degradation; for Fold Selectivity SMARCA4/2: ratio DC50 SMARCA4 / DC50 SMARCA2
T1 construct: endogenous in cells
T1 sequence (P51531 whole entry, species assumed): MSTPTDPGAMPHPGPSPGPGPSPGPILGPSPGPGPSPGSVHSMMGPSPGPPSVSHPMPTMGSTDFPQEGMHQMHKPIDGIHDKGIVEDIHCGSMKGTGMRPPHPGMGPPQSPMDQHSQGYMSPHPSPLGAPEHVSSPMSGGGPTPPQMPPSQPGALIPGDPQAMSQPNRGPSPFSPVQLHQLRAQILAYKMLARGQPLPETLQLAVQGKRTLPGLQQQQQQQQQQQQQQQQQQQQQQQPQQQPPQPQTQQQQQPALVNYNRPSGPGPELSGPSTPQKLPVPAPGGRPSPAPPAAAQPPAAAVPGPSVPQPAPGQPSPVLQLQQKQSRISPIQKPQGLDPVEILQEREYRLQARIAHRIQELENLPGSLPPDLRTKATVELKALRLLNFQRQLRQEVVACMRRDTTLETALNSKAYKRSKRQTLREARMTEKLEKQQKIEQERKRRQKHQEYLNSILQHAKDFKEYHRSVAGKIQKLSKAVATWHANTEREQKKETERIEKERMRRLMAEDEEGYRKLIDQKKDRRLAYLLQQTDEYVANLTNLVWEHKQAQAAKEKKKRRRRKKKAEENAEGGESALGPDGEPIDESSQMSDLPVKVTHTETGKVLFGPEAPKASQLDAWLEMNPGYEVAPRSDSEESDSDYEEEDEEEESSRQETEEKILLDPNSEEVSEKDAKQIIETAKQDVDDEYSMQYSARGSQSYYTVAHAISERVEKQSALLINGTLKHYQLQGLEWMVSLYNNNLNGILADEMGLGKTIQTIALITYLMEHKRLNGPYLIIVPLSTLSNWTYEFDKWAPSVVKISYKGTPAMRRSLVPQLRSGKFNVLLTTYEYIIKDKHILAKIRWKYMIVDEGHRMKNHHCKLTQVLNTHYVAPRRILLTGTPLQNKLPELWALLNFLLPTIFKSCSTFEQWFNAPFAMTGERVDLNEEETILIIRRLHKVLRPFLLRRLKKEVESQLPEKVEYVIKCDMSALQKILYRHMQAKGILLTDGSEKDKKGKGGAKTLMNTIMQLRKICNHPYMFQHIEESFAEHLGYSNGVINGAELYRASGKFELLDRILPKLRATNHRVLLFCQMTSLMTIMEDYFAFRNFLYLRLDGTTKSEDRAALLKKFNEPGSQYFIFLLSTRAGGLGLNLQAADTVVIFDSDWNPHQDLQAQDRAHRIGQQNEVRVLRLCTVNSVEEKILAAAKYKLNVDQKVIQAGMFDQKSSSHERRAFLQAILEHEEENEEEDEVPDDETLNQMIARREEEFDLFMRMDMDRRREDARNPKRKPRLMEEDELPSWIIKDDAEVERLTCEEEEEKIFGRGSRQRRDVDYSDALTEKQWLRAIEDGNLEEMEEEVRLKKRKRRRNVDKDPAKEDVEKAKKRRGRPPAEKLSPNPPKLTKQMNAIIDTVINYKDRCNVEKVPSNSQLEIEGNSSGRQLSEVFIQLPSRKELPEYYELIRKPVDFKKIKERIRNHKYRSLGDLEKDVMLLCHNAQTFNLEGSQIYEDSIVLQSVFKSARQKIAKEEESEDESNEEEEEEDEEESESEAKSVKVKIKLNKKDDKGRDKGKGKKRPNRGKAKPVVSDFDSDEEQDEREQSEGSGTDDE
In short: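 Percent SMARCA2 remaining relative to vehicle was derived from capillary Western peak areas, each normalized to β-actin after capillary background subtraction. Samples were tumor-derived cell lysates, 5 μg total protein loaded, heated at 95° C. for 5 minutes before the Jess run.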

SMARCA4 = target: T2, SMARCA4 (Homo sapiens, UniProt P51532); assay: Cellular degradation assay, SMARCA4 (Table 1); type: cell-based
T2 construct: endogenous in cells
T2 sequence (P51532 whole entry, species assumed): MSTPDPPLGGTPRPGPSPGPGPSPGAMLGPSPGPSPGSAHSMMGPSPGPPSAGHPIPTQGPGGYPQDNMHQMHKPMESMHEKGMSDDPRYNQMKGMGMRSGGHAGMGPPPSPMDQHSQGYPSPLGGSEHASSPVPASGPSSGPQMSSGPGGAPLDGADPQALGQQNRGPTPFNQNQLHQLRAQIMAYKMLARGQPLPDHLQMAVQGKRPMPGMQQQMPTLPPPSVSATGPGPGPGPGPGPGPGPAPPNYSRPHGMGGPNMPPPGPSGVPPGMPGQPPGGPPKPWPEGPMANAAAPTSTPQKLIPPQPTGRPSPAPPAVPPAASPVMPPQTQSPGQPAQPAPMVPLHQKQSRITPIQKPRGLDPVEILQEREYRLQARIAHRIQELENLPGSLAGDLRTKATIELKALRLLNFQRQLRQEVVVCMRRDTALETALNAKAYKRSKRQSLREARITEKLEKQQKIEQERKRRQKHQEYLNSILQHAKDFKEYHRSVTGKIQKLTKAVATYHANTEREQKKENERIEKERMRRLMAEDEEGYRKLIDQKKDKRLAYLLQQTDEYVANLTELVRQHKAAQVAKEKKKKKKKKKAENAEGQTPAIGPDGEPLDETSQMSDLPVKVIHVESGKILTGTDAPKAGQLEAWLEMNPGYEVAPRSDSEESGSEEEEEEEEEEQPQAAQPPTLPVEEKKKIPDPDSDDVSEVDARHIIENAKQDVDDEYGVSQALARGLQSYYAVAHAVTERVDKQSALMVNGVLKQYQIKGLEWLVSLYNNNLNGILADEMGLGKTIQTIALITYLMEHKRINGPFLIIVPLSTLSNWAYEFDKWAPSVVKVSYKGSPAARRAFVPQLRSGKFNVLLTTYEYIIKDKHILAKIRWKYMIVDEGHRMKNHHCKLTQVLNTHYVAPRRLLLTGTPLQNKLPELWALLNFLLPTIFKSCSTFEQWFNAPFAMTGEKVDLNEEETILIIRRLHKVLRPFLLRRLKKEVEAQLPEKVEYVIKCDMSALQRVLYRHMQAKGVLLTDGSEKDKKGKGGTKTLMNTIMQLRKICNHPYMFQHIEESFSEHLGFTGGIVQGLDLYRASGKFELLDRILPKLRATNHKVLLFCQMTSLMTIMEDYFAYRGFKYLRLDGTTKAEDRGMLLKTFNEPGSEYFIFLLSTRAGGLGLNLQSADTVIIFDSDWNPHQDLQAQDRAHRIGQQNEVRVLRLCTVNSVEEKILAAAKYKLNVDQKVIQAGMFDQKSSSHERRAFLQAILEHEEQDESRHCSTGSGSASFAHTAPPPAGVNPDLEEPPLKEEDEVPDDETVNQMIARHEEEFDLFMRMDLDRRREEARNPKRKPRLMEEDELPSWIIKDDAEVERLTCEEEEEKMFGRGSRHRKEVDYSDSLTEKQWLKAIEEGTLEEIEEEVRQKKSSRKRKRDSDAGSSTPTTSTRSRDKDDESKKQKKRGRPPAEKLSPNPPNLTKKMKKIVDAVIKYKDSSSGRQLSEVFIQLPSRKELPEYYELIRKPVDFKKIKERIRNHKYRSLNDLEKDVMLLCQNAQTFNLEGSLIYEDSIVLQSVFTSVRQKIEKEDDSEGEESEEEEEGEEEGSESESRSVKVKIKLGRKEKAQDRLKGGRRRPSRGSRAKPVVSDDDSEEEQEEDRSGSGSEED

SMILES	DC50 (SMARCA2)	Dmax (SMARCA2)	Fold Selectivity SMARCA4/2 (SMARCA2)	Dmax (SMARCA4)	DC50 (SMARCA4)
O=C1CCC(c2ccc(N3CCC4(CCN(CC5CCN(C(=O)C6(c7ccccc7)CCN(c7cnnc(-c8ccccc8O)c7)CC6)CC5)C4)CC3)cc2)C(=O)N1 (racemic) [Example 163, rac-(3R)-3-(4-{2-[(1-{1-[6-(2-hydroxyphenyl)pyridazin-4-yl]-4-phenylpiperidine-4-carbonyl}piperidin-4-yl)methyl]-2,8-diazaspiro[4.5]decan-8-yl}phenyl)piperidine-2,6-dione]	40.8 nM	62%	245	49.3%	
O=C1CC[C@H](c2ccc(N3CCC(CN4CC5CCCC(C4)N(C(=O)C4(c6ccccc6)CCN(c6cnnc(-c7ccccc7O)c6)CC4)C5)CC3)cc2)C(=O)N1 (stereo partly drawn) [Example 45, (3R)-3-(4-{4-[(9-{1-[6-(2-hydroxyphenyl)pyridazin-4-yl]-4-phenylpiperidine-4-carbonyl}-3,9-diazabicyclo[3.3.2]decan-3-yl)methyl]piperidin-1-yl}phenyl)piperidine-2,6-dione]		29.5%	1	9.72%	
O=C1CC[C@H](c2ccc(N3CCC(CN4CC5CCN(C(=O)C6(c7ccccc7)CCN(c7cnnc(-c8ccccc8O)c7)CC6)CC54)CC3)cc2)C(=O)N1 (stereo partly drawn) [Example 38, (3R)-3-(4-{4-[(3-{1-[6-(2-hydroxyphenyl)pyridazin-4-yl]-4-phenylpiperidine-4-carbonyl}-3,8-diazabicyclo[4.2.0]octan-8-yl)methyl]piperidin-1-yl}phenyl)piperidine-2,6-dione]		44.8%	1	3.22%	
COC1(C(=O)N(C)C2CCN(CCC3CCN(c4ccc(C5CCC(=O)NC5=O)cc4)CC3)CC2)CCN(c2cnnc(-c3ccccc3O)c2)CC1 (racemic) [Example 195, rac-N-(1-(2-(1-(4-(2,6-dioxopiperidin-3-yl)phenyl)piperidin-4-yl)ethyl)piperidin-4-yl)-1-(6-(2-hydroxyphenyl)pyridazin-4-yl)-4-methoxy-n-methylpiperidine-4-carboxamide]	13.7 nM	70%	727	20.3%	
CN(C(=O)C1(OC2CC2)CCN(c2cnnc(-c3ccccc3O)c2)CC1)C1CCN(C(=O)CN2CCC(c3ccc([C@@H]4CCC(=O)NC4=O)cc3)CC2)CC1 (racemic) [Example 115, rac-4-cyclopropoxy-n-(1-(2-(4-(4-(2,6-dioxopiperidin-3-yl)phenyl)piperidin-1-yl)acetyl)piperidin-4-yl)-1-(6-(2-hydroxyphenyl)pyridazin-4-yl)-n-methylpiperidine-4-carboxamide]	10.7 nM	77.6%	937	45.2%	
CN(C(=O)C1(c2ccccc2)CCN(c2cnnc(-c3ccccc3O)c2)CC1)C1CCN(CC2CCN(c3cccc([C@@H]4CCC(=O)NC4=O)c3)CC2)CC1 (racemic) [Example 102, rac-(r)-n-(1-((1-(3-(2,6-dioxopiperidin-3-yl)phenyl)piperidin-4-yl)methyl)piperidin-4-yl)-1-(6-(2-hydroxyphenyl)pyridazin-4-yl)-n-methyl-4-phenylpiperidine-4-carboxamide]	26.3 nM	77.7%	11	54.4%	295 nM
CC(C)c1cc(C2(C(=O)N3CC4(CN(CC5CCN(c6ccc(C7CCC(=O)NC7=O)cc6)CC5)C4)C3)CCN(c3cnnc(-c4ccccc4O)c3)CC2)no1 (racemic) [Example 92, rac-(3R)-3-(4-{4-[(6-{1-[6-(2-hydroxyphenyl)pyridazin-4-yl]-4-[5-(propan-2-yl)-1,2-oxazol-3-yl]piperidine-4-carbonyl}-2,6-diazaspiro[3.3]heptan-2-yl)methyl]piperidin-1-yl}phenyl)piperidine-2,6-dione]	4.81 nM	80.8%	19	50.2%	92.5 nM
O=C1CC[C@@H](c2ccc(C3CCN(CC(=O)N4C[C@@H]5[C@H](C4)[C@H]5C(=O)NCC4(c5ccccc5)CCN(c5cnnc(-c6ccccc6O)c5)CC4)CC3)cc2)C(=O)N1 (racemic) [Example 73, (1R,5S,6S)-3-[2-(4-{4-[(3RS)-2,6-dioxopiperidin-3-yl]phenyl}piperidin-1-yl)acetyl]-N-({1-[6-(2-hydroxyphenyl)pyridazin-4-yl]-4-phenylpiperidin-4-yl}methyl)-3-azabicyclo[3.1.0]hexane-6-carboxamide]	11 nM	79.8%	910	21%	
COc1cccc(C2(C(=O)N(C)C3CCN(CCC4CCN(c5ccc([C@H]6CCC(=O)NC6=O)cc5)CC4)CC3)CCN(c3cnnc(-c4ccccc4O)c3)CC2)c1 [Example 139, N-{1-[2-(1-{4-[(3R)-2,6-dioxopiperidin-3-yl]phenyl}piperidin-4-yl)ethyl]piperidin-4-yl}-1-[6-(2-hydroxyphenyl)pyridazin-4-yl]-4-(3-methoxyphenyl)-N-methylpiperidine-4-carboxamide]	4.55 nM	89.2%	37	54%	167 nM
O=C1CC[C@H](c2ccc(N3CCC(CN4CC5(C4)CN(C(=O)C4(C6CC6)CCN(c6cnnc(-c7ccccc7O)c6)CC4)C5)CC3)cc2)C(=O)N1 [Example 24, (3R)-3-(4-{4-[(6-{4-cyclopropyl-1-[6-(2-hydroxyphenyl)pyridazin-4-yl]piperidine-4-carbonyl}-2,6-diazaspiro[3.3]heptan-2-yl)methyl]piperidin-1-yl}phenyl)piperidine-2,6-dione]	62.7 nM	56.5%	159.52	31.7%	
CN(C(=O)C1(c2ccncc2)CCN(c2cnnc(-c3ccccc3O)c2)CC1)C1CCN(CCC2CCN(c3ccc([C@H]4CCC(=O)NC4=O)cc3)CC2)CC1 [Example 140, N-{1-[2-(1-{4-[(3R)-2,6-dioxopiperidin-3-yl]phenyl}piperidin-4-yl)ethyl]piperidin-4-yl}-1-[6-(2-hydroxyphenyl)pyridazin-4-yl]-N-methyl-4-(pyridin-4-yl)piperidine-4-carboxamide]	3.79 nM	86.9%	2641	31.2%	
O=C1CC[C@H](c2ccc(N3CCC(CN4CCC5(C4)CN(C(=O)C4(c6ccccc6)CCN(c6cnnc(-c7ccccc7O)c6)CC4)C5)CC3)cc2)C(=O)N1 [Example 17, (3R)-3-(4-{4-[(2-{1-[6-(2-hydroxyphenyl)pyridazin-4-yl]-4-phenylpiperidine-4-carbonyl}-2,6-diazaspiro[3.4]octan-6-yl)methyl]piperidin-1-yl}phenyl)piperidine-2,6-dione]	13.9 nM	78%	314.31	54.2%	4370 nM
N#CC1(CN2CCN(c3ccc([C@@H]4CCC(=O)NC4=O)cc3)CC2)CC12CCN(C(=O)C1(c3ccccc3)CCN(c3cnnc(-c4ccccc4O)c3)CC1)CC2 (mixture of isomers) [Example 171, rac-1-[(4-{4-[(3R)-2,6-dioxopiperidin-3-yl]phenyl}piperazin-1-yl)methyl]-6-{1-[6-(2-hydroxyphenyl)pyridazin-4-yl]-4-phenylpiperidine-4-carbonyl}-6-azaspiro[2.5]octane-1-carbonitrile]	28.5 nM	69.5%	35	41.4%	1000 nM
Cn1c(=O)n(C2CCC(=O)NC2=O)c2ccc(N3CCC(CN4CCC5(CC4)CN(C(=O)C4(c6ccccc6)CCN(c6cnnc(-c7ccccc7O)c6)CC4)C5)CC3)cc21 (racemic) [Example 159, rac-(3R)-3-(5-{4-[(2-{1-[6-(2-hydroxyphenyl)pyridazin-4-yl]-4-phenylpiperidine-4-carbonyl}-2,7-diazaspiro[3.5]nonan-7-yl)methyl]piperidin-1-yl}-3-methyl-2-oxo-2,3-dihydro-1H-1,3-benzodiazol-1-yl)piperidine-2,6-dione]	0.38 nM	89.5%	4	82.2%	1.45 nM
Cc1ccnn1C1(C(=O)N(C)C2CCN(CCC3CCN(c4cccc5c4n(C)c(=O)n5C4CCC(=O)NC4=O)CC3)CC2)CCN(c2cnnc(-c3ccccc3O)c2)CC1 (racemic) [Example 61, rac-N-{1-[2-(1-{1-[(3R)-2,6-dioxopiperidin-3-yl]-3-methyl-2-oxo-2,3-dihydro-1H-1,3-benzodiazol-4-yl}piperidin-4-yl)ethyl]piperidin-4-yl}-1-[6-(2-hydroxyphenyl)pyridazin-4-yl]-n-methyl-4-(5-methyl-1H-pyrazol-1-yl)piperidine-4-carboxamide]	0.18 nM	96.7%	19	86.8%	3.49 nM
Cn1ccc(OC2(C(=O)N3CCC4(CC3)CN(CCC3CCN(c5ccc(C6CCC(=O)NC6=O)cc5)CC3)C4)CCN(c3cnnc(-c4ccccc4O)c3)CC2)n1 (racemic) [Example 128, rac-3-(4-(4-(2-(7-(1-(6-(2-hydroxyphenyl)pyridazin-4-yl)-4-((1-methyl-1h-pyrazol-3-yl)oxy)piperidine-4-carbonyl)-2,7-diazaspiro[3.5]nonan-2-yl)ethyl)piperidin-1-yl)phenyl)piperidine-2,6-dione]	11.1 nM	71.6%	899	39.1%	
O=C1CC[C@@H](c2ccc(N3CCC(CN4CCCC(CNC(=O)C5(c6ccccc6)CCN(c6cnnc(-c7ccccc7O)c6)CC5)C4)CC3)cc2)C(=O)N1 (stereo partly drawn) [Example 10, N-({1-[(1-{4-[(3S)-2,6-dioxopiperidin-3-yl]phenyl}piperidin-4-yl)methyl]piperidin-3-yl}methyl)-1-[6-(2-hydroxyphenyl)pyridazin-4-yl]-4-phenylpiperidine-4-carboxamide]	80.1 nM	59.3%	124.82	25.6%	
